Source: patent US20100210664A1, “BENZENESULFONAMIDE COMPOUNDS SUITABLE FOR TREATING DISORDERS THAT RESPOND TO MODULATION OF THE DOPAMINE D3 RECEPTOR” (priority 2007, published 2010)

What was measured:
[1] = molecular target: T1, human dopamine D3 receptors (Homo sapiens, UniProt P35462); assay: Dopamine D3 receptor binding, displacement of [125I]-iodosulpride; conditions: membranes of HEK-293 cells stably expressing human D3; 0.1 nM [125I]-iodosulpride
T1 construct: expressed in transfected cells; host or cells: HEK-293 cells (membranes)
Experimental: (§1) The substance to be tested was either dissolved in methanol/Chremophor® (BASF-AG) or in dimethyl sulfoxide and then diluted with water to the desired concentration.
(§2) Each assay mixture was run in triplicate.
The incubation buffer contained 50 mM tris, 120 mM NaCl, 5 mM KCl, 2 mM CaCl2, 2 mM MgCl2 and 0.1% bovine serum albumin, 10 μM quinolone and 0.1% ascorbic acid (prepared fresh daily). The buffer was adjusted to pH 7.4 with HCl.
(§3) After having been incubated at 25° C. for 60 minutes, the assay mixtures were filtered through a Whatman GF/B glass fiber filter under vacuum using a cell collecting device. The filters were transferred to scintillation viols using a filter transfer system. After 4 ml of Ultima Gold® (Packard) have been added, the samples were shaken for one hour and the radioactivity was then counted in a Beta-Counter (Packard, Tricarb 2000 or 2200CA). The cpm values were converted into dpm using a standard quench series and the program belonging to the instrument.
(§4) The inhibition curves were analyzed by means of iterative nonlinear regression analysis using the Statistical Analysis System (SAS) which is similar to the “LIGAND” program described by Munson and Rodbard.

[2] = molecular target: T2, human dopamine D2L receptors (long isoform) (Homo sapiens, UniProt P14416); assay: Dopamine D2L receptor binding, displacement of [125I] iodospiperone; conditions: ratio Ki(D2L)/Ki(D3); HEK-293 membranes
T2 construct: expressed in transfected cells; host or cells: HEK-293 cells (membranes)
Experimental: as §1, §2
The incubation buffer contained 50 mM tris, 120 mM NaCl, 5 mM KCl, 2 mM CaCl2, 2 mM MgCl2 and 0.1% bovine serum albumin. The buffer was adjusted to pH 7.4 with HCl.
as §3, §4

T1 sequence (P35462 whole entry): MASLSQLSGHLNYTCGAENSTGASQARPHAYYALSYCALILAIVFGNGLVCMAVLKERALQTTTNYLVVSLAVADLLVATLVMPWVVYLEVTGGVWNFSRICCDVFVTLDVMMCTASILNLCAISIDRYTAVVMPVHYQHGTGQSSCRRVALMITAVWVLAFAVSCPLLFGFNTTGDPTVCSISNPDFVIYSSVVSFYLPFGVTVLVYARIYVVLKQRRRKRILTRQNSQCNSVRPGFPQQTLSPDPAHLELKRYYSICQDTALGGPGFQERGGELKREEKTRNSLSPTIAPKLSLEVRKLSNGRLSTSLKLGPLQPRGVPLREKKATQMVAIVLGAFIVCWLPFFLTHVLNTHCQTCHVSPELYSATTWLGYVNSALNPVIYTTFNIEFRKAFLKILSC
T2 sequence (P14416 whole entry, canonical isoform): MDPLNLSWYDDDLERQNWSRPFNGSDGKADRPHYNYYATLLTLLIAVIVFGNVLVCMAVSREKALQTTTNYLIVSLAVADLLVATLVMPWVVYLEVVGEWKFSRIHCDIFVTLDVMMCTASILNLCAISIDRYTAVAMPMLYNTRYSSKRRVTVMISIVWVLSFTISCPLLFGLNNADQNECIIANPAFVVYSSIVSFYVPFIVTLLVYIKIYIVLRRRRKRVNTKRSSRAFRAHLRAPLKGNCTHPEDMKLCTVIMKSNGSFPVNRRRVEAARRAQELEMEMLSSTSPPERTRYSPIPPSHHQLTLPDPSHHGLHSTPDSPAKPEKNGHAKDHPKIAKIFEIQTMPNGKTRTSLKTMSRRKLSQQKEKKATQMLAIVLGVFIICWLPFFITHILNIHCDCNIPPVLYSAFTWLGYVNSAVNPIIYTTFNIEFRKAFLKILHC

| Compound | Ki [1] [nM] | Selectivity vs. D2L, Ki(D2L)/Ki(D3) [2] |
| --- | --- | --- |
| COc1nc(N2CCNCC2)ccc1NS(=O)(=O)c1ccc(C(C)C(F)F)cc1 (centres unmarked) [Example 16, 4-(2,2-Difluoro-1-methyl-ethyl)-N-(2-methoxy-6-piperazin-1-yl-pyridin-3-yl)-benzenesulfonamide] | < 10 | >50 |
| Cc1nc(N2CCN[C@@H](C)C2)ccc1NS(=O)(=O)c1ccc([C@H](C)CF)cc1 [Example 1, 4-((S)-2-Fluoro-1-methyl-ethyl)-N-[2-methyl-6-((S)-3-methyl-piperazin-1-yl)-pyridin-3-yl]-benzenesulfonamide] | < 10 | >50 |
| COc1nc(N2CCNCC2)ccc1NS(=O)(=O)c1ccc([C@H](C)C(F)(F)F)cc1 [Example 18, N-(2-Methoxy-6-piperazin-1-yl-pyridin-3-yl)-4-((S)-2,2,2-trifluoro-1-methyl-ethyl)-benzenesulfonamide] | < 10 | >50 |
| COc1nc(N2CCNCC2)ccc1NS(=O)(=O)c1ccc(C(C)C(F)(F)F)cc1 (centres unmarked) [Example 17, N-(2-Methoxy-6-piperazin-1-yl-pyridin-3-yl)-4-(2,2,2-trifluoro-1-methyl-ethyl)-benzenesulfonamide] | < 10 | >50 |
| Cc1nc(N2CCNCC2)ccc1NS(=O)(=O)c1ccc(C(C)C(F)(F)F)cc1 (centres unmarked) [Example 11, 4-(2,2,2-Trifluoro-1-methyl-ethyl)-N-(2-methyl-6-piperazin-1-yl-pyridin-3-yl)-benzenesulfonamide] | < 10 | >50 |
| Cc1nc(N2CCNCC2)ccc1NS(=O)(=O)c1ccc([C@H](C)C(F)(F)F)cc1 [Example 13, 4-((S)-2,2,2-Trifluoro-1-methyl-ethyl)-N-(2-methyl-6-piperazin-1-yl-pyridin-3-yl)-benzenesulfonamide] | < 10 | >50 |
| Cc1nc(N2CCN[C@@H](C)C2)ccc1NS(=O)(=O)c1ccc([C@@H](C)CF)cc1 [Example 2, 4-((R)-2-Fluoro-1-methyl-ethyl)-N-[2-methyl-6-((S)-3-methyl-piperazin-1-yl)-pyridin-3-yl]-benzenesulfonamide] | < 10 | >50 |
| Cc1nc(N2CCNCC2)ccc1NS(=O)(=O)c1ccc([C@@H](C)C(F)(F)F)cc1 [Example 12, 4-((R)-2,2,2-Trifluoro-1-methyl-ethyl)-N-(2-methyl-6-piperazin-1-yl-pyridin-3-yl)-benzenesulfonamide] | < 10 | >50 |
| Cc1nc(N2CCNCC2)c(Br)cc1NS(=O)(=O)c1ccc([C@H](C)CF)cc1 [Example 7, N-(5-Bromo-2-methyl-6-piperazin-1-yl-pyridin-3-yl)-4-((S)-2-fluoro-1-methyl-ethyl)-benzenesulfonamide, reference compound] | < 1000 | >10 |

Next, values leading:

| Ki [1] [nM] | Selectivity vs. D2L, Ki(D2L)/Ki(D3) [2] | Compound |
| --- | --- | --- |
| < 10 | >50 | Cc1nc(N2CCNCC2)ccc1NS(=O)(=O)c1ccc([C@@H](C)CF)cc1 [Example 5, 4-((R)-2-Fluoro-1-methyl-ethyl)-N-[2-methyl-6-piperazin-1-yl-pyridin-3-yl]-benzenesulfonamide] |
| < 10 | >50 | Cc1nc(N2CCNCC2)ccc1NS(=O)(=O)c1ccc(C(C)C(F)F)cc1 (centres unmarked) [Example 8, 4-(2,2-Difluoro-1-methyl-ethyl)-N-(2-methyl-6-piperazin-1-yl-pyridin-3-yl)-benzenesulfonamide] |
| < 10 | >50 | Cc1nc(N2CCNCC2)ccc1NS(=O)(=O)c1ccc([C@H](C)C(F)F)cc1 [Example 9, 4-((S)-2,2-Difluoro-1-methyl-ethyl)-N-(2-methyl-6-piperazin-1-yl-pyridin-3-yl)-benzenesulfonamide] |
| < 10 | >50 | Cc1nc(N2CCNCC2)ccc1NS(=O)(=O)c1ccc([C@@H](C)C(F)F)cc1 [Example 10, 4-((R)-2,2-Difluoro-1-methyl-ethyl)-N-(2-methyl-6-piperazin-1-yl-pyridin-3-yl)-benzenesulfonamide] |
| < 10 | >50 | Cc1nc(N2CCNCC2)ccc1NS(=O)(=O)c1ccc([C@H](C)CF)cc1 [Example 6, 4-((S)-2-Fluoro-1-methyl-ethyl)-N-[2-methyl-6-piperazin-1-yl-pyridin-3-yl]-benzenesulfonamide] |
| < 10 | >50 | COc1nc(N2CCNCC2)ccc1NS(=O)(=O)c1ccc([C@@H](C)CF)cc1 [Example 14, 4-((R)-2-Fluoro-1-methyl-ethyl)-N-(2-methoxy-6-piperazin-1-yl-pyridin-3-yl)-benzenesulfonamide] |
| < 10 | >50 | COc1nc(N2CCNCC2)ccc1NS(=O)(=O)c1ccc([C@H](C)CF)cc1 [Example 15, 4-((S)-2-Fluoro-1-methyl-ethyl)-N-(2-methoxy-6-piperazin-1-yl-pyridin-3-yl)-benzenesulfonamide] |
